# Experimental data: publication PMC6620029 (Combinatorial chemistry & high throughput screening, 2009)
# Molecular target: human serum albumin (HSA) (Homo sapiens, UniProt P02768)
# Assay: 1D 1H NMR line broadening with HSA
# Type: binding
# Sequence of human serum albumin (HSA) (P02768 25-609): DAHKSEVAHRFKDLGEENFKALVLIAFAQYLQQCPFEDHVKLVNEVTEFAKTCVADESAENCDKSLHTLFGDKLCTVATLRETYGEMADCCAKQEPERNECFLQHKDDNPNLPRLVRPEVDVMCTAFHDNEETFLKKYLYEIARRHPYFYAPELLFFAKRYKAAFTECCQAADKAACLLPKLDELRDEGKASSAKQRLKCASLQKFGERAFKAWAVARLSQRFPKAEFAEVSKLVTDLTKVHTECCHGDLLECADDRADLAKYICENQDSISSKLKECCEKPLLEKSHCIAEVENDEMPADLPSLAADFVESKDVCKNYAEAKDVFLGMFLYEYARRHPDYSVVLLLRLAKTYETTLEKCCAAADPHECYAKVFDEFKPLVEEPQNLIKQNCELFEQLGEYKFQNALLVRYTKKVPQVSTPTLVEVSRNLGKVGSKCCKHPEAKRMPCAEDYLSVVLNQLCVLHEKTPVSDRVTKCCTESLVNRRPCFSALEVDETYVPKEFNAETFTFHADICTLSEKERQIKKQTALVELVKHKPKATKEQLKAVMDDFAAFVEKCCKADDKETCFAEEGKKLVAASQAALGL
smiles,measurement,value
Cc1cc(=O)oc2cc(O)ccc12 [7-hydroxy-4-methyl coumarin],1D 1H NMR line broadening with HSA; competition with warfarin,"The NMR resonances of the coumarin-analogue broaden (Fig (6a, b)) from the addition of HSA"
